Among the data in BindingDB's records for patent US9040727 (Shanghai Institute of Pharmaceutical Industry, 2015) are IC50 values, retold here.

For the experiment, the target named is Histone deacetylase 1 (Homo sapiens, UniProt Q13547). The experiment is described as follows: Inhibition Assay.
Chain of Histone deacetylase 1 (Q13547 whole entry): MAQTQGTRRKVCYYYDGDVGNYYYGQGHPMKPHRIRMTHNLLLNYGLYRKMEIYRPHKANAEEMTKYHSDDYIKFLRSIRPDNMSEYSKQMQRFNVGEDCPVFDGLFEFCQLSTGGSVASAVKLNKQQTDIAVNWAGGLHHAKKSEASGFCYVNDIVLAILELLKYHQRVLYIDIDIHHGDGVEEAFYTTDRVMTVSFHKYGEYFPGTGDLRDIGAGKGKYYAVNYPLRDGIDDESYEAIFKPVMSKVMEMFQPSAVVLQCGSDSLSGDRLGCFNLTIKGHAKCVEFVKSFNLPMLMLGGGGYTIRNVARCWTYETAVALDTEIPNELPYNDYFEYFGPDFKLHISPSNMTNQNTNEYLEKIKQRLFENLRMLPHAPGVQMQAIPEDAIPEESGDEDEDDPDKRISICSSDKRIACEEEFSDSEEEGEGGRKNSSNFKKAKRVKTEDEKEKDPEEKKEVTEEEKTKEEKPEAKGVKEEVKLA

One may read the IC50 as the concentration that inhibits the measured activity by half. `Nc1ccccc1NC(=O)c1ccc(CNC(=O)c2cc3ccccc3[nH]2)cc1` [US9040727, V-5]: it took 212 nM to reach half-maximal inhibition (IC50).

Compound `Nc1ccccc1NC(=O)c1ccc(CNC(=O)c2cc3ccccc3o2)cc1` [US9040727, V-8] yielded an IC50 of 732 nM.

Consider `Nc1ccc(F)cc1NC(=O)c1ccc(CNC(=O)c2cc3ccccc3o2)cc1` [US9040727, V-9], for which the IC50 is 178 nM.

Regarding `Nc1ccc(-c2cccs2)cc1NC(=O)c1ccc(CNC(=O)c2cc3ccccc3o2)cc1` [US9040727, V-10], inhibition was half-maximal at 1610 nM (IC50).

In turn, `Nc1ccc(-c2ccco2)cc1NC(=O)c1ccc(CNC(=O)c2nc3ccccc3[nH]2)cc1` [US9040727, V-14] yielded a half-maximal inhibitory concentration (IC50) of 330 nM.

Regarding `Nc1ccccc1NC(=O)c1ccc(CNC(=O)c2cc3cc(C(F)(F)F)ccc3[nH]2)cc1` [US9040727, V-20], the IC50 was 1010 nM.
